In patent US12582654B2, “Cyano-substituted pyridine and cyano-substituted pyrimidine compound and preparation method therefor and application thereof” (BEIJING SCITECH-MQ PHARMACEUTICALS LIMITED, priority 2019, dated 2026):

Tests used:
[1] = molecular target: FGFR4 kinase (Homo sapiens, UniProt P22455); assay: Inhibition of FGFR4 kinase activity (ULight-labeled JAK-1 peptide, EU665/EU615 reading); assay type: biochemical; details: FGFR4 kinase 3.85 nM, ATP 100 μM, enzymatic reaction 2 hours
Description: (§1) Assay of activity of small molecule compounds on inhibiting FGFR4 kinase and FGFR4 V550L mutant kinase. The assay method was as follows:
(§2) 1) Dilution of Compounds:
(§3) In a 96-well plate a, the compounds were serially diluted 3-fold with DMSO to form 11 concentrations, and the 12th concentration was pure DMSO (as a positive control); In a new 96-well plate b, the above solutions were diluted 25-fold with ultrapure water (DMSO concentration was 4%).
(§4) 2) Transferring Compounds to a 384-Well Plate:
(§5) The above solutions of compounds diluted with ultrapure water in the 96-well plate b were pipetted into corresponding wells of a 384-well plate.
(§6) 3) Adding 4× kinase solution: 2.5 μl of the above 4× kinase solutions were pipetted with a multi-channel pipette into corresponding reaction wells of the 384-well plate, and the mixture was mixed well and pre-reacted at room temperature for 5 minutes.
(§7) 4) Adding 2× substrate/ATP mixture: 5 μl of the above 2× substrate/ATP mixtures were pipetted with a multi-channel pipette into corresponding reaction wells of the 384-well plate.
(§8) 5) Negative control: negative control wells were set up in the 384-well plate by adding 2.5 μl of 4× substrate, 2.5 μl of 4× enzyme solution, 2.5 μl of 1× kinase Assay Buffer and 2.5 μl of ultrapure water containing 4% DMSO to each well.
(§9) 6) Centrifuging, mixing well, and reacting at room temperature in the dark for 2 hours.
(§10) 7) Terminating the Enzymatic Reaction:
(§11) 5 μl of the above 4× stop solutions were pipetted into corresponding wells of the 384-well plate, and the mixture was centrifuged, mixed well, and then reacted at room temperature for 5 minutes.
(§12) 8) Development of the Reaction:
(§13) 5 μl of the above 4× detection solutions were pipetted into corresponding wells of the 384-well plate, and the mixture was centrifuged, mixed well, and then reacted at room temperature for 1 hour.
(§14) 9) The 384-well plate was placed into a plate reader, and the signal was detected using the appropriate program.
(§15) 10) Analysis of IC50: Reading of well=10000*EU665 value/EU615 value Inhibition rate=(reading of positive control well−reading of assay well)/(reading of positive control well−reading of negative control well)*100%
(§16) The corresponding IC50 can be calculated by inputting the drug concentrations and corresponding inhibition rates into GraphPad Prism 5 and processing.
Assay Conditions for Screening FGFR4 Kinase Activity Inhibitory Molecule:
The final concentration of FGFR4 kinase in the reaction system was 3.85 nM, the final concentration of ATP was 100 μM, the final concentration of substrate ULight™-labeled JAK-1 (Tyr1023) Peptide was 100 nM, and the time for enzymatic reaction was 2 hours.
The highest final concentration of the compound in the reaction system was 2.5 μM. After serial 3-fold dilution, there were 11 concentrations in total, and the lowest final concentration was 0.042 nM. The final concentration of DMSO was 1%.

[2] = molecular target: FGFR4 V550L kinase (Homo sapiens, UniProt P22455, V550L); assay: Inhibition of FGFR4 V550L mutant kinase activity (ULight-labeled PolyGT, EU665/EU615 reading); assay type: biochemical; details: FGFR4 V550L kinase 1 nM, ATP 10 μM, enzymatic reaction 2 hours
Description: as §1, §2, §3, §4, §5, §6, §7, §8, §9, §10, §11, §12, §13, §14, §15, §16
Assay Conditions for Screening FGFR4 V550L Kinase Activity Inhibitory Molecule:
The final concentration of FGFR4 V550L kinase in the reaction system was 1 nM, the final concentration of ATP was 10 μM, the final concentration of substrate ULight™-labeled PolyGT was 100 nM, and the time for enzymatic reaction was 2 hours.
The highest final concentration of the compound in the reaction system was 2.5 μM. After seral 3-fold dilution, there were 11 concentrations in total, and the lowest final concentration was 0.042 nM. The final concentration of DMSO was 1%.

[3] = molecular target: T1, Ba/F3 ETV6-FGFR4 cells (Homo sapiens, UniProt P22455); assay: Inhibition of cell proliferation (CCK-8), Ba/F3 ETV6-FGFR4 cells; assay type: cell-based; details: 72 hours of incubation, read-out: Ba/F3 ETV6-FGFR4 IC50
T1 construct: fused on or other part: N-terminal part of ETV6 (TEL), the oligomerising partner that makes the FGFR4 kinase constitutively active; P41212 (Transcription factor ETV6)
Description: (§17) Compounds were assayed for inhibiting cell proliferation, and the specific method was as follows: • 1. Cells were cultured to a logarithmic growth phase, pipetted evenly, transferred to a 15 mL centrifuge tube, and centrifuged at 1000 rpm at room temperature for 4 minutes; • 2. The supernatant was discarded; 5 mL of complete medium was added and pipetted evenly; 10 μL of cell suspension was weighed, mixed well with 10 μL of 0.4% trypan blue, and counted under a cell counter; the proportion of living cells was ensured to be above 90%; • 3. The cell suspension was seeded into a 96-well plate (80 μL of cell suspension per well) according to the conditions shown in Table 5; in the outer 36 wells of the 96-well plate, no cells were added but only sterile water was added; only the inner 60 wells were used for cell assay and control; • 4. 5× compound dilution: the compounds were serially diluted 4-fold to give a total of 9 concentrations; 80-fold overall dilution was completed with complete medium, the resulting concentration was 5 times the final drug concentration, and DMSO concentration was 1.25%; • 5. 20 μL of the corresponding compounds with different concentrations were added to each well of assay wells of the 96-well plate; 20 μL of complete medium was added to positive and negative control wells and shaken well; and the final concentration of DMSO in each well was 0.25%; • 6. After 72 hours of incubation, 10 μL of CCK-8 reagent was added to each well and further incubated at 37° C. for 1-2 hours; and the OD value was read at 450 nm; 7. Cell survival rate (%)=[(As−Ab)/(Ac−Ab)]*100% • As: Assay well (medium containing cells, CCK-8, compound) • Ac: Control well (medium containing cells, CCK-8) • Ab: Blank well (medium without cell and compound, CCK-8) • 8. The values were imported into Graphpad Prism 5 software for IC50 calculation.

[4] = molecular target: T2, Ba/F3 ETV6-FGFR4-V550L cells (Homo sapiens, UniProt P22455, V550L, cells depend on it); assay: Inhibition of cell proliferation (CCK-8), Ba/F3 ETV6-FGFR4-V550L cells; assay type: cell-based; details: 72 hours of incubation, read-out: Ba/F3 ETV6-FGFR4-V550L IC50
T2 construct: fused on or other part: N-terminal part of ETV6 (TEL), the oligomerising partner of the fusion; already named as the first entry; P41212 (Transcription factor ETV6)
Description: as §17

Chain of FGFR4 kinase (P22455 22-802): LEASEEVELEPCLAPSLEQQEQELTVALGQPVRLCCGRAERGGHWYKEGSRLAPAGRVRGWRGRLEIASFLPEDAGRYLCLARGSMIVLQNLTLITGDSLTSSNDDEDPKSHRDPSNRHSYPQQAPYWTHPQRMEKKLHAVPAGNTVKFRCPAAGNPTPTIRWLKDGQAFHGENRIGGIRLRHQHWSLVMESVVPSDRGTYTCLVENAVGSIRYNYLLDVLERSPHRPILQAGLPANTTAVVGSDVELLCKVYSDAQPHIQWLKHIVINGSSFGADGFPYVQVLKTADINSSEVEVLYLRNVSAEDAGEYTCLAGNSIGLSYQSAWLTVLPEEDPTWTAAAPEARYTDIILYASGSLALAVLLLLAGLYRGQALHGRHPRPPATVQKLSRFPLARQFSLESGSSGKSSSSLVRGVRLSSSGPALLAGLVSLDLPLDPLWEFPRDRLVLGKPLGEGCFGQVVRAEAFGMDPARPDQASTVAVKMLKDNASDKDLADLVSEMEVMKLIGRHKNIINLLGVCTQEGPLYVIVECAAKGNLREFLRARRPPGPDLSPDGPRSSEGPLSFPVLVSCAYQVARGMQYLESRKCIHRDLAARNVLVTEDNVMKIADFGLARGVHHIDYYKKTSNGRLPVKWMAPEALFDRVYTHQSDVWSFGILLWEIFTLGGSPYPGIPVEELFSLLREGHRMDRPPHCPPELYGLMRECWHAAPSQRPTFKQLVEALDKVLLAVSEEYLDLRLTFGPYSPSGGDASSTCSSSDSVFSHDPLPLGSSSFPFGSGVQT
T2 sequence (P22455 whole entry V550L, the tested form may be a part): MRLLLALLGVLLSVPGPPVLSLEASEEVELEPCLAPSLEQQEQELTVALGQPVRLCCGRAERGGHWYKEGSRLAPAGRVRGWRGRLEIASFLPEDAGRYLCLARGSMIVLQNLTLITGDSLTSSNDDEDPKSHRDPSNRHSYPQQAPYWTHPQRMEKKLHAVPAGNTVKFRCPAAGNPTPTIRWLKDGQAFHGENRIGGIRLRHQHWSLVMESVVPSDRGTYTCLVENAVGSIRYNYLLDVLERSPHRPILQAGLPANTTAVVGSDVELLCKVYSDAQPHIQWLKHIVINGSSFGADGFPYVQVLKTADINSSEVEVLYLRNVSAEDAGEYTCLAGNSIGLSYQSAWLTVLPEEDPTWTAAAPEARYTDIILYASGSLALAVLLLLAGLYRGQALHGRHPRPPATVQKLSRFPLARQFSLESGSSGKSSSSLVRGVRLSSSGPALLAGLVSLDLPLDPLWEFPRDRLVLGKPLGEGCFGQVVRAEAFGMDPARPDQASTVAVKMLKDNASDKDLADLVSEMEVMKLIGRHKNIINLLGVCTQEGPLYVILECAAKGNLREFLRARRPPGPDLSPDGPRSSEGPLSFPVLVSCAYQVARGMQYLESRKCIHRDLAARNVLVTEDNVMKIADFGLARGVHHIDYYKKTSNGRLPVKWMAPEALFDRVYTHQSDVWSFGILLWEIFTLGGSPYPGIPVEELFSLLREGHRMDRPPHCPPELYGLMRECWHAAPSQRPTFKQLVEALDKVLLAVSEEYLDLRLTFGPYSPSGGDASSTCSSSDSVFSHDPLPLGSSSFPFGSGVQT
T1 sequence (P22455 whole entry, change not shown, the tested form may be a part): as the sequence (P22455 whole entry V550L, the tested form may be a part) above, with L550V counted along it
Chain of FGFR4 V550L kinase (P22455 22-802 V550L): as the sequence (P22455 22-802) above, with V529L counted along it

Compound	IC50 [1] [nM]	IC50 [2] [nM]	GI50 [3] [nM]	GI50 [4] [nM]
C=CC(=O)Nc1cc(N2CCN(CC)CC2)ccc1Nc1ncc(C#N)c(Nc2ccc(O)cc2OC(C)C)n1 [Example 28, N-(2-((5-cyano-4-((4-hydroxy-2-isopropoxyphenyl)amino)pyrimidin-2-yl)amino)-5-(4-ethylpiperazin-1-yl)phenyl) acrylamide]	≤ 10	≤ 10	100 to 1000	50 to 100
C=CC(=O)Nc1cc(N2CCN(CC)CC2)ccc1Nc1ncc(C#N)c(Nc2ccc(Cl)cc2OC(C)C)n1 [Example 29, N-(2-((4-((4-chloro-2-isopropoxyphenyl)amino)-5-cyanopyrimidin-2-yl)amino)-5-(4-ethylpiperazin-1-yl)phenyl) acrylamide]	10 to 50	10 to 50	≤ 10	≤ 10
C=CC(=O)Nc1cc(N2CCN(CC)CC2)ccc1Nc1ncc(C#N)c(Nc2ccc(C)cc2OC(C)C)n1 [Example 30, N-(2-((5-cyano-4-((2-isopropoxy-4-methylphenyl)amino)pyrimidin-2-yl)amino)-5-(4-ethylpiperazin-1-yl)phenyl) acrylamide]	10 to 50	≤ 10	≤ 10	≤ 10
C=CC(=O)Nc1cc(N2CCN(CC)CC2)ccc1Nc1ncc(C#N)c(Nc2ccc(OC)cc2OC(C)C)n1 [Example 31, N-(2-((5-cyano-4-((2-isopropoxy-4-methoxyphenyl)amino)pyrimidin-2-yl)amino)-5-(4-ethylpiperazin-1-yl)phenyl) acrylamide]	≤ 10	10 to 50	≤ 10	≤ 10
C=CC(=O)Nc1cc(N2CCN(CC)CC2)ccc1Nc1ncc(C#N)c(Nc2ccc(OCCOC)cc2OC(C)C)n1 [Example 33, N-(2-((5-cyano-4-((2-isopropoxy-4-(2-methoxyethoxy)phenyl)amino)pyrimidin-2-yl)amino)-5-(4-ethylpiperazin-1-yl)phenyl) acrylamide]	≤ 10	10 to 50	≤ 10	≤ 10
C=CC(=O)Nc1cc(N2CCN(CC)CC2)ccc1Nc1ncc(C#N)c(Nc2ccc(C(F)(F)F)cc2OC(C)C)n1 [Example 34, N-(2-((5-cyano-4-((2-isopropoxy-4-(trifluoromethyl)phenyl)amino)pyrimidin-2-yl)amino)-5-(4-ethylpiperazin-1-yl)phenyl) acrylamide]	50 to 100	10 to 50	10 to 50	10 to 50
C=CC(=O)Nc1cc(N2CCN(CC)CC2)ccc1Nc1ncc(C#N)c(Nc2ccc(S(C)(=O)=O)cc2OC(C)C)n1 [Example 35, N-(2-((5-cyano-4-((2-isopropoxy-4-(methylsulfonyl)phenyl)amino)pyrimidin-2-yl)amino)-5-(4-ethylpiperazin-1-yl)phenyl) acrylamide]	10 to 50	10 to 50	10 to 50	10 to 50
C=CC(=O)Nc1cc(N2CCN(CC)CC2)ccc1Nc1ncc(C#N)c(Nc2ccc(C3CC3)cc2OC(C)C)n1 [Example 36, N-(2-((5-cyano-4-((4-cyclopropyl-2-isopropoxyphenyl)amino)pyrimidin-2-yl)amino)-5-(4-ethylpiperazin-1-yl)phenyl) acrylamide]	10 to 50	10 to 50	10 to 50	10 to 50
C=CC(=O)Nc1cc(N2CCN(C(C)C)CC2)ccc1Nc1ncc(C#N)c(Nc2ccccc2OC(C)C)n1 [Example 37, N-(2-((5-cyano-4-((2-isopropoxyphenyl)amino)pyrimidin-2-yl)amino)-5-(4-isopropylpiperazin-1-yl)phenyl) acrylamide]	≤ 10	≤ 10	≤ 10	≤ 10
C=CC(=O)Nc1cc(N2CCN(CC)CC2)ccc1Nc1ncc(C#N)c(Nc2ccc(CCC)cc2OC(C)C)n1 [Example 38, N-(2-((5-cyano-4-((2-isopropoxy-4-propylphenyl)amino)pyrimidin-2-yl)amino)-5-(4-ethylpiperazin-1-yl)phenyl) acrylamide]	50 to 100	50 to 100	10 to 50	10 to 50
C=CC(=O)Nc1cc(N2CCC(N3CCN(C)CC3)CC2)ccc1Nc1ncc(C#N)c(Nc2ccc(F)cc2OC(C)C)n1 [Example 39, N-(2-((5-cyano-4-((4-fluoro-2-isopropoxyphenyl)amino)pyrimidin-2-yl)amino)-5-(4-(4-methylpiperazin-1-yl)piperidin-1-yl)phenyl) acrylamide]	≤ 10	≤ 10	≤ 10	≤ 10
C=CC(=O)Nc1cc(N2CCC(N3CCN(C)CC3)CC2)c(F)cc1Nc1ncc(C#N)c(Nc2ccc(F)cc2OC(C)C)n1 [Example 40, N-(2-((5-cyano-4-((4-fluoro-2-isopropoxyphenyl)amino)pyrimidin-2-yl)amino)-4-fluoro-5-(4-(4-methylpiperazin-1-yl)piperidin-1-yl)phenyl) acrylamide]	10 to 50	10 to 50	≤ 10	≤ 10
C=CC(=O)Nc1cc(N2CCC(N3CCN(C)CC3)CC2)ccc1Nc1ncc(C#N)c(Nc2ccc(C(N)=O)cc2OC(C)C)n1 [Example 41, 4-((2-((2-acrylamido-4-(4-(4-methylpiperazin-1-yl)piperidin-1-yl)phenyl)amino)-5-cyanopyrimidin-4-yl)amino)-3-isopropoxybenzamide]	10 to 50	≤ 10	100 to 1000	100 to 1000
C=CC(=O)Nc1cc(N2CCC(N3CCC(C)(O)CC3)CC2)ccc1Nc1ncc(C#N)c(Nc2ccccc2OC(C)C)n1 [Example 42, N-(2-((5-cyano-4-((2-isopropoxyphenyl)amino)pyrimidin-2-yl)amino)-5-(4-hydroxy-4-methyl-[1,4′-bipiperidin]-1′-yl)phenyl) acrylamide]	≤ 10	≤ 10	≤ 10	≤ 10
